Data on 29 molecules can be found in patent US10703757B2, “Compounds and methods for CDK8 modulation and indications therefor” (Plexxikon Inc., priority 2016, dated 2020).

Experiment [1] relates to CDK8 (TCF/LEF luciferase reporter in HCT116 cells). In words: Cell based TCF/LEF reporter assay (HCT116+TCF/LEF luciferase). The following applies: Homo sapiens, HCT-116, 24 h. In outline: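 Luciferase readout was corrected for viability (CellTiter-Fluor) and scaled between DMSO high and 10 uM CCT251545 low controls, giving IC50 by nonlinear regression. Compounds, serially diluted, were incubated 24 h at 37 °C on HCT116 clones stably expressing a TCF/LEF-driven luciferase reporter.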
On the technique in general: In a reporter assay the amount or activity of a reporter protein is the signal.

Experiment [2] has as its system CDK8 (phosphorylation of STAT1 at serine 727 in A549 cells). In words: Cell based Phospho-STAT1 assay (IFNγ-stimulated A549 cells, AlphaLISA). The following applies: Homo sapiens, A549, A549 cells, phospho-STAT1 after IFNγ stimulation. The method, boiled down: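 A549 cells given serial compound dilutions for 1 h at 37 °C, then stimulated with IFNγ at 10 ng/mL final for 30 min. Lysate STAT1 Ser727 phosphorylation measured by AlphaLISA; % inhibition vs stimulated/unstimulated DMSO controls, IC50 by nonlinear regression.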
For orientation: In Alpha technology, singlet oxygen from a donor bead excites a nearby acceptor bead.

The structures appear in SMILES notation.

The IC50 is the point on the concentration scale where inhibition reaches its midpoint. A low value points to greater potency.

As to `N#CC1CCN(c2cccn3ncc(-c4ccc(C(=O)N5CCCC5)cc4)c23)CC1` [Compound P-0257, 1-(3-(4-(pyrrolidine-1-carbonyl)phenyl)pyrazolo[1,5-a]pyridin-4-yl)piperidine-4-carbonitrile], the IC50 in experiment [1] and in experiment [2] was 100 to 1000 nM in each case.

As for `N#CC1CCN(c2cccn3ncc(-c4ccc(C(=O)N5CCOCC5)cc4)c23)CC1` [Compound P-0258, 1-(3-(4-(morpholine-4-carbonyl)phenyl)pyrazolo[1,5-a]pyridin-4-yl)piperidine-4-carbonitrile], the IC50 in experiment [1] and in experiment [2] was 100 to 1000 nM in each case.

On to `N#CC1CCN(c2cccn3ncc(-c4ccc(NC(=O)OCc5ccccc5)cc4)c23)CC1` [Compound P-0259, benzyl (4-(4-(4-cyanopiperidin-1-yl)pyrazolo[1,5-a]pyridin-3-yl)phenyl)carbamate], for which the IC50 in experiment [1] and in experiment [2] was 100 to 1000 nM in each case.

For the molecule `N#CC1CCN(c2cccn3ncc(-c4ccc(OCCCN5CCCCC5)cc4)c23)CC1` [Compound P-0260, 1-(3-(4-(3-(piperidin-1-yl)propoxy)phenyl)pyrazolo[1,5-a]pyridin-4-yl)piperidine-4-carbonitrile], the IC50 in experiment [1] and in experiment [2] was 100 to 1000 nM in each case.

Consider `N#CC1CCN(c2cccn3ncc(-c4ccc(OCCN5CCOCC5)cc4)c23)CC1` [Compound P-0261, 1-(3-(4-(2-morpholino-ethoxy)phenyl)pyrazolo[1,5-a]pyridin-4-yl)piperidine-4-carbonitrile], for which the IC50 in experiment [1] and in experiment [2] was 0.1 to 100 nM each time.

For the molecule `N#CC1CCN(c2cccn3ncc(-c4ccc(OCC(O)CN5CCOCC5)cc4)c23)CC1` (stereo not shown) [Compound P-0262, 1-(3-(4-(2-hydroxy-3-morpholino-propoxy)phenyl)pyrazolo[1,5-a]pyridin-4-yl)piperidine-4-carbonitrile], the IC50 in experiment [1] and in experiment [2] was 0.1 to 100 nM throughout.

For the molecule `N#CC1CCN(c2cccn3ncc(-c4ccc(OCC(O)CN5CCCCC5)cc4)c23)CC1` (stereo not shown) [Compound P-0263, 1-(3-(4-(2-hydroxy-3-(piperidin-1-yl)propoxy)phenyl)pyrazolo[1,5-a]pyridin-4-yl)piperidine-4-carbonitrile], the IC50 in experiment [1] and in experiment [2] was 0.1 to 100 nM in each case.

Regarding `N#CC1CCN(c2cccn3ncc(-c4ccc(OCC5CCCCO5)cc4)c23)CC1` (stereo not shown) [Compound P-0264, 1-(3-(4-((tetrahydro-2H-pyran-2-yl)methoxy)phenyl)pyrazolo[1,5-a]pyridin-4-yl)piperidine-4-carbonitrile], the IC50 in experiment [1] and in experiment [2] was 0.1 to 100 nM in each case.

Turning to `N#CC1CCN(c2cccn3ncc(-c4ccc(OC5CCCCC5)cc4)c23)CC1` [Compound P-0265, 1-(3-(4-(cyclo-hexyloxy)phenyl)pyrazolo[1,5-a]pyridin-4-yl)piperidine-4-carbonitrile], the IC50 in experiment [1] and in experiment [2] was 1000 to 10000 nM in each case.

In the case of `CC(C)(C)COc1ccc(-c2cnn3cccc(N4CCC(C#N)CC4)c23)cc1` [Compound P-0266, 1-(3-(4-(neopentyloxy)phenyl)pyrazolo[1,5-a]pyridin-4-yl)piperidine-4-carbonitrile], the IC50 in experiment [1] and in experiment [2] was 1000 to 10000 nM throughout.

As to `N#CC1CCN(c2cccn3ncc(-c4ccc(OCc5ccccc5)cc4)c23)CC1` [Compound P-0267, 1-(3-(4-(benzyloxy)phenyl)pyrazolo[1,5-a]pyridin-4-yl)piperidine-4-carbonitrile], the IC50 in experiment [1] and in experiment [2] was 100 to 1000 nM each time.

Take `CNC(=O)c1ccc2cc(-c3cnc4[nH]ccc4c3C3=CCC(C#N)CC3)ccc2c1` (stereo not shown) [Compound P-0268, 6-(4-(4-cyanocyclohex-1-en-1-yl)-1H-pyrrolo[2,3-b]pyridin-5-yl)-N-methyl-2-naphthamide]: the IC50 in experiment [1] and in experiment [2] was 0.1 to 100 nM in each case.

For `CNC(=O)c1ccc2cc(-c3cnc4[nH]ccc4c3N3CCC(F)(C#N)CC3)ccc2c1` [Compound P-0269, 6-(4-(4-cyano-4-fluoropiperidin-1-yl)-1H-pyrrolo[2,3-b]pyridin-5-yl)-N-methyl-2-naphthamide], the concentration for half-maximal inhibition (IC50) in experiment [1] and in experiment [2] was 100 to 1000 nM in each case.

Consider `N#CC1CC=C(c2c(-c3ccc(-c4cnn(C(F)F)c4)cc3)cnc3[nH]ccc23)CC1` (stereo not shown) [Compound P-0270, 4-(5-(4-(1-(difluoromethyl)-1H-pyrazol-4-yl)phenyl)-1H-pyrrolo[2,3-b]pyridin-4-yl)cyclohex-3-ene-1-carbonitrile], for which the half-maximal inhibitory concentration (IC50) in experiment [1] and in experiment [2] was 0.1 to 100 nM throughout.

`Cn1cc(-c2ccc(-c3cnc4[nH]ccc4c3N3CCC4(CCNC4=O)CC3)cc2)cn1` [Compound P-0271, 8-(5-(4-(1-methyl-1H-pyrazol-4-yl)phenyl)-1H-pyrrolo[2,3-b]pyridin-4-yl)-2,8-diazaspiro[4.5]decan-1-one]: the concentration for half-maximal inhibition (IC50) in experiment [1] and in experiment [2] was 100 to 1000 nM each time.

As to `Cn1cc(-c2ccc(-c3cnc4[nH]ccc4c3N3CCC4(CC3)C(=O)Nc3ccccc34)cc2)cn1` [Compound P-0272, 1′-(5-(4-(1-methyl-1H-pyrazol-4-yl)phenyl)-1H-pyrrolo[2,3-b]pyridin-4-yl)spiro[indoline-3,4′-piperidin]-2-one], the IC50 in experiment [1] is 0.1 to 100 nM; in experiment [2] it was 100 to 1000 nM.

`Cn1cc(-c2ccc(-c3cnn4cccc(C#CC(C)(C)C#N)c34)cc2)cn1` [Compound P-0273, 2,2-dimethyl-4-(3-(4-(1-methyl-1H-pyrazol-4-yl)phenyl)pyrazolo[1,5-a]pyridin-4-yl)but-3-ynenitrile]: the IC50 in experiment [1] and in experiment [2] was 0.1 to 100 nM throughout.

For the molecule `Cn1cc(-c2ccc(-c3cnn4ccnc(C#CC(C)(C)O)c34)cc2)cn1` [Compound P-0274, 2-methyl-4-(3-(4-(1-methyl-1H-pyrazol-4-yl)phenyl)pyrazolo[1,5-a]pyrazin-4-yl)but-3-yn-2-ol], the IC50 in experiment [1] and in experiment [2] was 0.1 to 100 nM each time.

On to `Cn1cc(C#Cc2cnc3cccc(N4CCC5(CC4)NCNC5=O)n23)cn1` [Compound P-0275, 8-(3-((1-methyl-1H-pyrazol-4-yl)ethynyl)imidazo[1,2-a]pyridin-5-yl)-1,3,8-triazaspiro[4.5]decan-4-one], for which the IC50 in experiment [1] and in experiment [2] was 100 to 1000 nM each time.

On to `CC1=NC2(CCN(c3cccc4ncc(C#Cc5cnn(C)c5)n34)CC2)C(=O)N1` [Compound P-0276, 2-methyl-8-(3-((1-methyl-1H-pyrazol-4-yl)ethynyl)imidazo[1,2-a]pyridin-5-yl)-1,3,8-triazaspiro[4.5]dec-1-en-4-one], for which the IC50 in experiment [1] and in experiment [2] was 1000 to 10000 nM in each case.

As to `Cn1cc(C#Cc2cnc3cccc(N4CCC5(CC4)CNC(=O)O5)n23)cn1` [Compound P-0277, 8-(3-((1-methyl-1H-pyrazol-4-yl)ethynyl)imidazo[1,2-a]pyridin-5-yl)-1-oxa-3,8-diazaspiro[4.5]decan-2-one], the IC50 in experiment [1] and in experiment [2] was 1000 to 10000 nM each time.

As for `Cn1cc(C#Cc2cnc3cccc(N4CCC5(CCNC5=O)CC4)n23)cn1` [Compound P-0278, 8-(3-((1-methyl-1H-pyrazol-4-yl)ethynyl)imidazo[1,2-a]pyridin-5-yl)-2,8-diazaspiro[4.5]decan-1-one], the IC50 in experiment [1] and in experiment [2] was 100 to 1000 nM throughout.

For `Cn1cc(-c2ccc(-c3cnn4ccnc(C5=CCC(C(N)=O)CC5)c34)cc2)cn1` (stereo not shown) [Compound P-0280, 4-(3-(4-(1-methyl-1H-pyrazol-4-yl)phenyl)pyrazolo[1,5-a]pyrazin-4-yl)cyclohex-3-ene-1-carboxamide], the IC50 in experiment [1] and in experiment [2] was 0.1 to 100 nM throughout.

Turning to `Cc1ccc2cc(-c3cnn4cccc(C#CC(C)(C)O)c34)ccc2n1` [Compound P-0281, 2-methyl-4-(3-(2-methylquinolin-6-yl)pyrazolo[1,5-a]pyridin-4-yl)but-3-yn-2-ol], the IC50 in experiment [1] and in experiment [2] was 100 to 1000 nM in each case.

Regarding `COc1ccc2cc(-c3cnn4cccc(C#CC(C)(C)O)c34)ccc2n1` [Compound P-0282, 4-(3-(2-methoxyquinolin-6-yl)pyrazolo[1,5-a]pyridin-4-yl)-2-methylbut-3-yn-2-ol], the IC50 in experiment [1] and in experiment [2] was 100 to 1000 nM each time.

On to `CC(C)(O)C#Cc1cccn2ncc(-c3cnn(-c4ccc(F)cc4)c3)c12` [Compound P-0283, 4-(3-(1-(4-fluorophenyl)-1H-pyrazol-4-yl)pyrazolo[1,5-a]pyridin-4-yl)-2-methylbut-3-yn-2-ol], for which the IC50 in experiment [1] and in experiment [2] was 100 to 1000 nM each time.

Turning to `FC(F)n1cc(-c2ccc(-c3cnc4cccc(OC5COC5)n34)cc2)cn1` [Compound P-0284, 3-(4-(1-(difluoromethyl)-1H-pyrazol-4-yl)phenyl)-5-(oxetan-3-yloxy)imidazo[1,2-a]pyridine], the IC50 in experiment [1] and in experiment [2] was 1000 to 10000 nM throughout.

Turning to `Cn1cc(-c2ccc(-c3cnn4cccc(N5CCC(F)(C(N)=O)CC5)c34)cc2)cn1` [Compound P-0285, 4-fluoro-1-(3-(4-(1-methyl-1H-pyrazol-4-yl)phenyl)pyrazolo[1,5-a]pyridin-4-yl)piperidine-4-carboxamide], the IC50 in experiment [1] and in experiment [2] was 100 to 1000 nM each time.

On to `CC(C)(O)C#Cc1cccn2ncc(-c3ccc4nccn4c3)c12` [Compound P-0286, 4-(3-(imidazo[1,2-a]pyridin-6-yl)pyrazolo[1,5-a]pyridin-4-yl)-2-methylbut-3-yn-2-ol], for which the IC50 was in the range of 100 to 1000 nM in experiment [1] and 0.1 to 100 nM in experiment [2].
